Reference: US20250100993A1, “2-SUBSTITUTED THIAZOLE HSD17B13 INHIBITORS AND USES THEREOF” (Inipharm, Inc., priority 2022, published 2025)

Molecular target: HSD17B13 (Homo sapiens (Human), UniProt Q7Z5P4)
Experiment: LC/MS estrone detection assay for HSD17B13 activity (estradiol to estrone)
Assay type: biochemical
Conditions: estradiol substrate, LC-MS/MS estrone detection
Procedure: The liquid chromatography/mass spectrometry (LC/MS) estrone detection assay monitors the conversion of estradiol to estrone by HSD17B13. This assay was undertaken in a 96 wp format (Eppendorf deep well Plate 96/500) in an 80 μl reaction volume containing: 4 μM of Estradiol (E2; Cayman; Ser. No. 10/006,315), 6 mM NAD+(Sigma; #N0623) and 30 nM HSD17B13 enzyme (in-house; E. coli expressed His-tagged, purified, soluble protein) in a reaction containing 1M potassium phosphate buffer pH 7.4, with 0.5% vehicle (DMSO). Reactions were incubated for 2 hours at 26.5° C., and estradiol (E2) conversion to estrone (E1) was quantitated by LC-MS/MS based analyte detection for both E2 and E1 using LCMS grade reagents.
Reactions were terminated by the addition of two volumes of acetonitrile (MeCN; LCMS grade; CAS #75/05/8) containing deuterated (D4)-E1 used as internal standard (Clear Synth; #CS-T-54273; 500 ng/mL final concentration). Samples were applied to pre-prepared Bond Elut-C18 extraction cartridges (3 mL; Agilent; Ser. No. 12/102,028), washed and eluted in MeCN. Eluates were dried under nitrogen and re-suspended in 60% methanol (LCMS grade methanol; CAS #67/56/1) before submission for analysis. Aqueous linearity for E2 and E1 were included for quantification.
Analysis of samples was undertaken on a XBridge BEH C18 column (Waters; #186003033) using 0.1% Diethyl Amine in MeCN (mobile phase A; DEA CAS #109-89-7) and 0.1% Diethyl Amine in milli-Q water (mobile phase B) in a 3 min gradient allowing 25% B. Analytes were detected in negative mode using MRM analysis, with E2 having a RT of 1.85 min and E1 having a RT of 2 min. Activity of the enzyme, in the absence of NAD+, was used to evaluate specificity of conversion. Enzyme activity in the presence of test samples was expressed as a percentage of the uninhibited enzyme activity, and plotted versus inhibitor concentration. Non-linear regression was performed using a four-parameter logistic model and GraphPad Prism software (GraphPad Software, La Jolla, CA). All assessments were undertaken in duplicate evaluations and pooled during extraction process and subsequently injected as duplicates for LC-MS/MS analysis.

Sequence of HSD17B13 (Q7Z5P4 20-300): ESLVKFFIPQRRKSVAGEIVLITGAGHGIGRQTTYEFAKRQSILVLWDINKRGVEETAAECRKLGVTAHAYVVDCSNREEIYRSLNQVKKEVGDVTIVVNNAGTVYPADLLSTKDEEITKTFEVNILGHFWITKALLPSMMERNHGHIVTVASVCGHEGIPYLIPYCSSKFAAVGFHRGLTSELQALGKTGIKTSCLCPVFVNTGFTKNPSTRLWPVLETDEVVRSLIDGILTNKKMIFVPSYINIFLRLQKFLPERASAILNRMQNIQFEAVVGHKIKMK

O=C(Nc1n[nH]cc1C(=O)NCc1ccccc1C(F)(F)F)c1cc(Cl)c(O)c(Cl)n1 [Example 1, 4,6-dichloro-5-hydroxy-N-(4-((2-(trifluoromethyl)benzyl)carbamoyl)-1H-pyrazol-3-yl)picolinamide]
IC50: ≤ 100 nM

Cn1cc(C(=O)NCc2ccccc2C(F)(F)F)c(NC(=O)c2cc(Cl)c(O)c(Cl)n2)n1 [Example 2, 4,6-dichloro-5-hydroxy-N-(1-methyl-4-((2-(trifluoromethyl)benzyl)carbamoyl)-1H-pyrazol-3-yl)picolinamide]
IC50: 100 to 500 nM

O=C(Nc1n[nH]cc1C(=O)NCc1ccccc1C(F)(F)F)c1cc(Cl)c(O)c(Cl)c1 [Example 3, 3-(3,5-dichloro-4-hydroxybenzamido)-N-(2-(trifluoromethyl)benzyl)-1H-pyrazole-4-carboxamide]
IC50: ≤ 100 nM

Cn1cc(NC(=O)c2cc(Cl)c(O)c(Cl)n2)c(C(=O)NCc2ccccc2OC(F)(F)F)n1 [Example 4, 4,6-dichloro-5-hydroxy-N-(1-methyl-3-((2-(trifluoromethoxy)benzyl)carbamoyl)-1H-pyrazol-4-yl)picolinamide]
IC50: 100 to 500 nM

Cn1ncc(NC(=O)c2cc(Cl)c(O)c(Cl)n2)c1C(=O)NCc1ccccc1OC(F)(F)F [Example 5, 4,6-dichloro-5-hydroxy-N-(1-methyl-5-((2-(trifluoromethoxy)benzyl)carbamoyl)-1H-pyrazol-4-yl)picolinamide]
IC50: 100 to 500 nM

Cn1cc(C(=O)NCc2ccccc2C(F)(F)F)c(NC(=O)c2cc(Cl)c(O)c(Cl)c2)n1 [Example 6, 3-(3,5-dichloro-4-hydroxybenzamido)-1-methyl-N-(2-(trifluoromethyl)benzyl)-1H-pyrazole-4-carboxamide]
IC50: 100 to 500 nM

Cn1ncc(C(=O)NCc2ccccc2C(F)(F)F)c1NC(=O)c1cc(Cl)c(O)c(Cl)c1 [Example 7, 5-(3,5-dichloro-4-hydroxybenzamido)-1-methyl-N-(2-(trifluoromethyl)benzyl)-1H-pyrazole-4-carboxamide]
IC50: 1000 to 10000 nM

O=C(Nc1nn(-c2ccccc2)cc1C(=O)NCc1ccccc1C(F)(F)F)c1cc(Cl)c(O)c(Cl)n1 [Example 8, 4,6-dichloro-5-hydroxy-N-(1-phenyl-4-((2-(trifluoromethyl)benzyl)carbamoyl)-1H-pyrazol-3-yl)picolinamide]
IC50: 100 to 500 nM

O=C(Nc1nn(-c2ccccc2)cc1C(=O)NCc1ccccc1C(F)(F)F)c1cc(Cl)c(O)c(Cl)c1 [Example 9, 3-(3,5-dichloro-4-hydroxybenzamido)-1-phenyl-N-(2-(trifluoromethyl)benzyl)-1H-pyrazole-4-carboxamide]
IC50: ≤ 100 nM

Cn1ncc(C(=O)NCc2ccccc2C(F)(F)F)c1NC(=O)c1cc(Cl)c(O)c(Cl)n1 [Example 10, 4,6-dichloro-5-hydroxy-N-(1-methyl-4-((2-(trifluoromethyl)benzyl)carbamoyl)-1H-pyrazol-5-yl)picolinamide]
IC50: 1000 to 10000 nM

Cc1ccc(NC(=O)c2cc(Cl)c(O)c(Cl)c2)c2c(=O)n(Cc3ccccc3C(F)(F)F)nnc12 [Example 11, 3,5-dichloro-4-hydroxy-N-(8-methyl-4-oxo-3-(2-(trifluoromethyl)benzyl)-3,4-dihydrobenzo[d][1,2,3]triazin-5-yl)benzamide]
IC50: ≤ 100 nM

Cc1ccc(NC(=O)c2cc(Cl)c(O)c(Cl)n2)c2c(=O)n(Cc3ccccc3C(F)(F)F)nnc12 [Example 12, 4,6-dichloro-5-hydroxy-N-(8-methyl-4-oxo-3-(2-(trifluoromethyl)benzyl)-3,4-dihydrobenzo[d][1,2,3]triazin-5-yl)picolinamide]
IC50: 100 to 500 nM

O=C(Nc1ccc(F)c2nnn(Cc3ccccc3C(F)(F)F)c(=O)c12)c1cc(Cl)c(O)c(Cl)n1 [Example 13, 4,6-dichloro-N-(8-fluoro-4-oxo-3-(2-(trifluoromethyl)benzyl)-3,4-dihydrobenzo[d][1,2,3]triazin-5-yl)-5-hydroxypicolinamide]
IC50: 100 to 500 nM

O=C(Nc1ccc(F)c2nnn(Cc3ccccc3C(F)(F)F)c(=O)c12)c1cc(Cl)c(O)c(Cl)c1 [Example 14, 3,5-dichloro-N-(8-fluoro-4-oxo-3-(2-(trifluoromethyl)benzyl)-3,4-dihydrobenzo[d][1,2,3]triazin-5-yl)-4-hydroxybenzamide]
IC50: ≤ 100 nM

Cc1nc2c(F)ccc(NC(=O)c3cc(Cl)c(O)c(Cl)n3)c2c(=O)n1[C@H]1CC[C@@H]1c1ccccc1 [Example 15, 4,6-dichloro-N-(8-fluoro-2-methyl-4-oxo-3-((1S,2R)-2-phenylcyclobutyl)-3,4-dihydroquinazolin-5-yl)-5-hydroxypicolinamide]
IC50: 100 to 500 nM

Cc1nc2c(F)ccc(NC(=O)c3cc(Cl)c(O)c(Cl)c3)c2c(=O)n1[C@H]1CC[C@@H]1c1ccccc1 [Example 16, 3,5-dichloro-N-(8-fluoro-2-methyl-4-oxo-3-((1S,2R)-2-phenylcyclobutyl)-3,4-dihydroquinazolin-5-yl)-4-hydroxybenzamide]
IC50: ≤ 100 nM

Cc1ccc(NC(=O)c2cc(Cl)c(O)c(Cl)c2)c2c(=O)n(C3CCC3c3ccccc3C(F)(F)F)c(C)nc12 (stereo not shown) [Example 17, 3,5-dichloro-N-(2,8-dimethyl-4-oxo-3-(2-(2-(trifluoromethyl)phenyl)cyclobutyl)-3,4-dihydroquinazolin-5-yl)-4-hydroxybenzamide]
IC50: 100 to 500 nM

CCn1c(=O)n(Cc2ccccc2C(F)(F)F)c(=O)c2c(NC(=O)c3cc(Cl)c(O)c(Cl)n3)cccc21 [Example 18, 4,6-dichloro-N-(1-ethyl-2,4-dioxo-3-(2-(trifluoromethyl)benzyl)-1,2,3,4-tetrahydroquinazolin-5-yl)-5-hydroxypicolinamide]
IC50: 100 to 500 nM

Cn1c(=O)n(Cc2ccccc2C(F)(F)F)c(=O)c2c(NC(=O)c3cc(Cl)c(O)c(Cl)n3)ccc(F)c21 [Example 19, 4,6-dichloro-N-(8-fluoro-1-methyl-2,4-dioxo-3-(2-(trifluoromethyl)benzyl)-1,2,3,4-tetrahydroquinazolin-5-yl)-5-hydroxypicolinamide]
IC50: 100 to 500 nM

Cn1c(=O)n(Cc2ccccc2C(F)(F)F)c(=O)c2c(NC(=O)c3cc(Cl)c(O)c(Cl)n3)cccc21 [Example 20, 4,6-dichloro-5-hydroxy-N-(1-methyl-2,4-dioxo-3-(2-(trifluoromethyl)benzyl)-1,2,3,4-tetrahydroquinazolin-5-yl)picolinamide]
IC50: 100 to 500 nM

Cc1nc(C(=O)NCc2ccccc2OC(F)(F)F)c(NC(=O)c2cc(Cl)c(O)c(Cl)c2)s1 [Example 21, 5-(3,5-dichloro-4-hydroxybenzamido)-2-methyl-N-(2-(trifluoromethoxy)benzyl)thiazole-4-carboxamide]
IC50: 100 to 500 nM

Cc1nc(C(=O)NCc2ccccc2OC(F)(F)F)c(NC(=O)c2cc(Cl)c(O)c(Cl)n2)s1 [Example 22, 5-(4,6-dichloro-5-hydroxypicolinamido)-2-methyl-N-(2-(trifluoromethoxy)benzyl)thiazole-4-carboxamide]
IC50: 100 to 500 nM

O=C(Nc1sc(-c2ccccc2)nc1C(=O)NCc1ccccc1C(F)(F)F)c1cc(Cl)c(O)c(Cl)n1 [Example 23, 5-(4,6-dichloro-5-hydroxypicolinamido)-2-phenyl-N-(2 (trifluoromethyl)benzyl)thiazole-4-carboxamide]
IC50: ≤ 100 nM

O=C(Nc1scnc1C(=O)NC1(c2ccccc2C(F)(F)F)CC1)c1cc(Cl)c(O)c(Cl)n1 [Example 24, 5-(4,6-dichloro-5-hydroxypicolinamido)-N-(1-(2-(trifluoromethyl)phenyl)cyclopropyl)thiazole-4-carboxamide]
IC50: 100 to 500 nM

CN(Cc1ccccc1C(F)(F)F)C(=O)c1ncsc1NC(=O)c1cc(Cl)c(O)c(Cl)n1 [Example 25, 5-(4,6-dichloro-5-hydroxypicolinamido)-N-methyl-N-(2-(trifluoromethyl)benzyl)thiazole-4-carboxamide]
IC50: 100 to 500 nM

Cc1nc(C(=O)NCc2ccccc2C(F)(F)F)c(NC(=O)c2cc(Cl)c(O)c(Cl)n2)s1 [Example 26, 5-(4,6-dichloro-5-hydroxypicolinamido)-2-methyl-N-(2-(trifluoromethyl)benzyl)thiazole-4-carboxamide]
IC50: 100 to 500 nM

Cc1nc(C(=O)NCc2ccccc2C(F)(F)F)c(NC(=O)c2cc(Cl)c(O)c(Cl)c2)s1 [Example 27, 5-(3,5-dichloro-4-hydroxybenzamido)-2-methyl-N-(2-(trifluoromethyl)benzyl)thiazole-4-carboxamide]
IC50: 100 to 500 nM

O=C(Nc1ncc(C(=O)NCc2ccccc2C(F)(F)F)s1)c1cc(Cl)c(O)c(Cl)n1 [Example 28, 2-(4,6-dichloro-5-hydroxypicolinamido)-N-(2-(trifluoromethyl)benzyl)thiazole-5-carboxamide]
IC50: 1000 to 10000 nM
